Measurements published in the NIST ThermoML archive (doi:10.1016/j.jct.2009.09.013).

Assay: xn = mol fraction of the nth substance listed
Details: 101 kPa, Liquid; for speed of sound: Sing-around technique in a fixed-path interferometer; for kinematic viscosity: Vibrating wire viscometry; for mass density: Vibrating tube method

OCCCCO [1,4-butanediol] + CCCCO
Details	kinematic viscosity [m2/s]	mass density [kg/m3]	speed of sound [m/s]
293.02 K, x1 = 1	–	–	1614.9
293.03 K, x1 = 0.7946	–	–	1537.8
293.05 K, x1 = 0.6478	–	–	1482.1
293.05 K, x1 = 0.9234	–	–	1586.4
293.06 K, x1 = 0.3571	–	–	1375.1
293.06 K, x1 = 0.4979	–	–	1426
293.07 K, x1 = 0.2	–	–	1321
293.08 K, x1 = 0.051	–	–	1272.7
298.01 K, x1 = 1	6.99e-05	–	–
298.06 K, x1 = 0.4592	1.56e-05	–	–
298.06 K, x1 = 1	–	–	1602.6
298.07 K, x1 = 0.1507	5.44e-06	–	–
298.07 K, x1 = 0.9374	6e-05	–	–
298.08 K, x1 = 0.2	–	–	1304.8
298.08 K, x1 = 0.5676	2.18e-05	–	–
298.08 K, x1 = 0.6478	–	–	1468.3
298.08 K, x1 = 0.7946	–	–	1524.7
298.09 K, x1 = 0.3571	–	–	1359.7
298.09 K, x1 = 0.7435	3.62e-05	–	–
298.1 K, x1 = 0.051	–	–	1255.7
298.1 K, x1 = 0.4979	–	–	1411.3
298.1 K, x1 = 0.6576	2.84e-05	–	–
298.1 K, x1 = 0.8108	4.34e-05	–	–
298.1 K, x1 = 0.9234	–	–	1573.9
298.14 K, x1 = 0.2986	9.22e-06	–	–
298.15 K, x1 = 0.1507	–	837.834	–
298.15 K, x1 = 0.2986	–	869.164	–
298.15 K, x1 = 0.4592	–	902.986	–
298.15 K, x1 = 0.5676	–	925.394	–
298.15 K, x1 = 0.6576	–	943.952	–
298.15 K, x1 = 0.7435	–	961.447	–
298.15 K, x1 = 0.8108	–	974.991	–
298.15 K, x1 = 0.9374	–	1000.24	–
298.15 K, x1 = 1	–	1012.72	–
302.51 K, x1 = 1	5.63e-05	–	–
302.99 K, x1 = 0.9374	4.76e-05	–	–
303 K, x1 = 0.6576	2.33e-05	–	–
303.01 K, x1 = 0.1507	4.68e-06	–	–
303.01 K, x1 = 0.5676	1.8e-05	–	–
303.01 K, x1 = 0.7435	2.93e-05	–	–
303.01 K, x1 = 0.8108	3.49e-05	–	–
303.04 K, x1 = 0.4592	1.3e-05	–	–
303.06 K, x1 = 0.2986	7.83e-06	–	–
303.15 K, x1 = 0.1507	–	834.13	–
303.15 K, x1 = 0.2986	–	865.589	–
303.15 K, x1 = 0.4592	–	899.553	–
303.15 K, x1 = 0.5676	–	922.055	–
303.15 K, x1 = 0.6576	–	940.685	–
303.15 K, x1 = 0.7435	–	958.245	–
303.15 K, x1 = 0.8108	–	971.848	–
303.15 K, x1 = 0.9374	–	997.175	–
303.15 K, x1 = 1	–	1009.69	–
303.3 K, x1 = 1	–	–	1590.1
303.36 K, x1 = 0.2	–	–	1287.8
303.36 K, x1 = 0.4979	–	–	1396.1
303.36 K, x1 = 0.7946	–	–	1511
303.36 K, x1 = 0.9234	–	–	1561
303.37 K, x1 = 0.051	–	–	1238
303.37 K, x1 = 0.3571	–	–	1343.7
303.39 K, x1 = 0.6478	–	–	1453.8
308.06 K, x1 = 1	4.37e-05	–	–
308.15 K, x1 = 0.1507	–	830.397	–
308.15 K, x1 = 0.2986	–	861.995	–
308.15 K, x1 = 0.4592	–	896.107	–
308.15 K, x1 = 0.5676	–	918.702	–
308.15 K, x1 = 0.6576	–	937.408	–
308.15 K, x1 = 0.7435	–	955.036	–
308.15 K, x1 = 0.8108	–	968.692	–
308.15 K, x1 = 0.9374	–	994.107	–
308.15 K, x1 = 1	–	1006.66	–
308.16 K, x1 = 0.9374	3.79e-05	–	–
308.17 K, x1 = 0.6576	1.9e-05	–	–
308.18 K, x1 = 0.4592	1.09e-05	–	–
308.19 K, x1 = 0.8108	2.8e-05	–	–
308.22 K, x1 = 0.1507	3.96e-06	–	–
308.22 K, x1 = 0.2986	6.63e-06	–	–
308.23 K, x1 = 0.5676	1.48e-05	–	–
308.24 K, x1 = 0.7435	2.37e-05	–	–
308.32 K, x1 = 0.7946	–	–	1498.4
308.32 K, x1 = 1	–	–	1578.3
308.33 K, x1 = 0.051	–	–	1221.5
308.33 K, x1 = 0.9234	–	–	1548.9
308.35 K, x1 = 0.3571	–	–	1328.7
308.35 K, x1 = 0.4979	–	–	1381.9
308.36 K, x1 = 0.2	–	–	1272
308.38 K, x1 = 0.6478	–	–	1440.3
313.12 K, x1 = 1	3.51e-05	–	–
313.15 K, x1 = 0.1507	–	826.639	–
313.15 K, x1 = 0.2986	–	858.379	–
313.15 K, x1 = 0.4592	–	892.64	–
313.15 K, x1 = 0.5676	–	915.331	–
313.15 K, x1 = 0.6576	–	934.116	–
313.15 K, x1 = 0.7435	–	951.814	–
313.15 K, x1 = 0.8108	–	965.521	–
313.15 K, x1 = 0.9374	–	991.027	–
313.15 K, x1 = 1	–	1003.63	–
313.19 K, x1 = 0.9374	3.06e-05	–	–
313.2 K, x1 = 0.6757	1.57e-05	–	–
313.21 K, x1 = 0.5676	1.24e-05	–	–
313.23 K, x1 = 0.4592	9.16e-06	–	–
313.23 K, x1 = 0.7435	1.95e-05	–	–
313.23 K, x1 = 0.8108	2.29e-05	–	–
313.26 K, x1 = 0.1507	3.36e-06	–	–
313.29 K, x1 = 0.2986	5.65e-06	–	–
313.32 K, x1 = 0.051	–	–	1204.9
313.33 K, x1 = 0.7946	–	–	1485.7
313.35 K, x1 = 1	–	–	1566.5
313.36 K, x1 = 0.3571	–	–	1313.8
313.36 K, x1 = 0.9234	–	–	1536.8
313.37 K, x1 = 0.2	–	–	1256.2
313.37 K, x1 = 0.4979	–	–	1367.6
313.39 K, x1 = 0.6478	–	–	1426.9
318.15 K, x1 = 0.1507	–	822.854	–
318.15 K, x1 = 0.2986	–	854.74	–
318.15 K, x1 = 0.4592	–	889.157	–
318.15 K, x1 = 0.5676	–	911.95	–
318.15 K, x1 = 0.6576	–	930.812	–
318.15 K, x1 = 0.7435	–	948.578	–
318.15 K, x1 = 0.8108	–	962.345	–
318.15 K, x1 = 0.9374	–	987.943	–
318.15 K, x1 = 1	–	1000.58	–
318.29 K, x1 = 0.051	–	–	1188.5
318.3 K, x1 = 0.7946	–	–	1473.1
318.35 K, x1 = 0.3571	–	–	1299.1
318.35 K, x1 = 0.4979	–	–	1353.5
318.35 K, x1 = 1	–	–	1554.8
318.36 K, x1 = 0.9234	–	–	1525
318.38 K, x1 = 0.2	–	–	1240.6
318.38 K, x1 = 0.6478	–	–	1413.6
318.56 K, x1 = 0.8108	1.87e-05	–	–
318.72 K, x1 = 1	2.79e-05	–	–
318.73 K, x1 = 0.9374	2.45e-05	–	–
318.74 K, x1 = 0.6575	1.29e-05	–	–
318.75 K, x1 = 0.5676	1.03e-05	–	–
318.75 K, x1 = 0.7435	1.59e-05	–	–
318.76 K, x1 = 0.4592	7.65e-06	–	–
318.8 K, x1 = 0.1507	2.79e-06	–	–
318.81 K, x1 = 0.2986	4.76e-06	–	–

CCCCO [butan-1-ol] + OCCCCO
x2 = 0
Details	kinematic viscosity [m2/s]	mass density [kg/m3]	speed of sound [m/s]
293.03 K	–	–	1257
298.02 K	3.24e-06	–	–
298.07 K	–	–	1239.7
298.15 K	–	805.77	–
302.47 K	2.9e-06	–	–
303.15 K	–	801.928	–
303.35 K	–	–	1221.6
308 K	2.53e-06	–	–
308.15 K	–	798.054	–
308.34 K	–	–	1204.8
312.96 K	2.25e-06	–	–
313.15 K	–	794.146	–
313.37 K	–	–	1188
318.15 K	–	790.196	–
318.37 K	–	–	1171.4
318.61 K	1.99e-06	–	–
